Measured values published in patent US20050250677A1, “Glycopeptide antibiotic derivatives” (priority 2002, published 2005).
Where two headings read alike, the source gives them in different places.

Legend:
[1] = tested on: mutant HIV-1 strain Tyr-181-Cys; assay: Anti-HIV-1 activity against mutant HIV-1 strain Tyr-181-Cys in CEM cultures; format: cell-based
[2] = tested on: HIV-1(HE); assay: Inhibition of HIV-1 (HE)-induced cytopathicity in MOLT4/C8 cells; format: cell-based
[3] = tested on: HIV-1 (HE); assay: Inhibition of HIV-1 (HE)-induced cytopathicity in CEM/0 cells; format: cell-based
[4] = tested on: human lymphocyte CEM; assay: Cytostatic activity assay, CEM cells; format: cell-based; conditions: read-out: IC50 CEM (compound concentration required to inhibit tumor cell proliferation by 50%)
[5] = tested on: HEL cells; conditions: read-out: CC50 (HEL)
[6] = tested on: human lymphocyte Molt4/clone 8; assay: Cytostatic activity assay, Molt4/clone 8 cells; format: cell-based; conditions: read-out: IC50 Molt4/C8 (compound concentration required to inhibit tumor cell proliferation by 50%)
[7] = tested on: murine leukemia L1210; assay: Cytostatic activity assay, L1210 cells; format: cell-based; conditions: read-out: IC50 L1210 (compound concentration required to inhibit tumor cell proliferation by 50%)
[8] = tested on: HIV-1 (MN); assay: Inhibition of HIV-1 (MN)-induced cytopathicity in CEM/0 cells; format: cell-based
[9] = tested on: HIV-2(ROD); assay: Inhibition of HIV-2 (ROD)-induced cytopathicity (giant cell formation) in CEM cells; format: cell-based; conditions: read-out: EC50 HIV-2 (concentration required to inhibit HIV-induced giant cell formation by 50%); HIV-2, CEM cell cultures
Protocol: (§1) A variety of glycopeptide antibiotic derivatives of vancomycin, eremomycin and teicoplanin including their aglycon derivatives were evaluated for their inhibitory activity against HIV-1 (IIIB) and HIV-2(ROD) in CEM cell cultures.

[10] = tested on: mutant HIV-1 strain Lys-103-Asn; assay: Anti-HIV-1 activity against mutant HIV-1 strain Lys-103-Asn in CEM cultures; format: cell-based
[11] = tested on: HEL cells
[12] = tested on: HIV-1 (IIIB); assay: Inhibition of HIV-1 (IIIB)-induced cytopathicity (giant cell formation) in CEM cells; format: cell-based
Protocol: as §1

[13] = tested on: VZV (wild-type strains); assay: Anti-VZV assay (wild-type strains): virus-induced cytopathicity in HEL cell cultures; format: cell-based, varicella-zoster virus; conditions: HEL cell cultures
[14] = tested on: HIV-2 (RF); conditions: read-out: EC50 CEM/0 HIV-2 (RF); CEM/0 cells
Protocol: (§2) Inhibition of HIV-1 (IIIB, HE, HN) and HIV-2(ROD, EHO, RF)-induced cytopathicity in CEM or C8166 or Molt4/C8 cells was measured in microtiter 96-well plates containing ˜3×10^5 CEM cells/ml, infected with 100 CCID50 of HIV per ml and containing appropriate dilutions of the test compounds. After 4 to 5 days of incubation at 37° C. in a CO2-controlled humidified atmosphere, CEM, C8166 or Molt4/C8 giant (syncytium) cell formation was examined microscopically.

[15] = tested on: HIV-2 (EHO); conditions: read-out: EC50 CEM/0 HIV-2 (EHO); CEM/0 cells
Protocol: as §2

[16] = tested on: HIV; assay: Selection of resistant HIV strains in cell culture; format: cell-based; conditions: ≧9 weeks of attempts in cell culture
[17] = tested on: HSV-2 (G); assay: Anti-HSV-2 assay: virus-induced cytopathicity in HEL cell cultures; conditions: for EC50: read-out: EC50 HSV-2 (G), HEL cell cultures
[18] = tested on: CMV; assay: Anti-CMV assay: virus-induced cytopathicity in HEL cell cultures; conditions: read-out: EC50 CMV AD-169; CMV strain AD-169, HEL cell cultures
[19] = tested on: HSV-1 (KOS); assay: Anti-HSV-1 assay: virus-induced cytopathicity in HEL cell cultures; conditions: for EC50: read-out: EC50 HSV-1 (KOS), HEL cell cultures
[20] = tested on: mutant HIV-1 strain Tyr-188-His; assay: Anti-HIV-1 activity against mutant HIV-1 strain Tyr-188-His in CEM cultures; format: cell-based
Protocol: as §2

[21] = tested on: Vero cells; conditions: read-out: CC50 Vero
[22] = tested on: SARS virus (strain Frankfurt-1); assay: microbe, parasite or virus in culture; format: cell-based, human corona (SARS) virus; conditions: SARS virus in Vero cells; read-out: EC50 SARS virus
[23] = tested on: FCK cells; conditions: read-out: CC50 FCK; FCK cells
[24] = tested on: FCV; assay: Feline corona virus assay in Feline Crandel kidney cells (MTS); format: cell-based; conditions: FCV in FCK cells; read-out: EC50 FCV
Protocol: Feline Crandel kidney cells were seeded in 96-well microtiter plates at 24,000 cells/well. Then, 24 hrs later, an appropriate inoculum of FCV is added together with 5-fold dilutions of the test compounds. After 4 days, a MTS/PMS solution was added to each well. Following a 90 min incubation period at 37° C., the optical density of the wells was read at 498 nm in a microplate reader.

[25] = tested on: mutant HIV-1 strain Leu-100-Ile; assay: Anti-HIV-1 activity against mutant HIV-1 strain Leu-100-Ile in CEM cultures; format: cell-based
[26] = CEM cultures, wild type in mutant panel, read-out: EC50 HIV-1 IIIB
[27] = CEM/0 cells, read-out: EC50 CEM/0 HIV-1 (IIIB)
[28] = read-out: EC50 HIV-1 (concentration required to inhibit HIV-induced giant cell formation by 50%), HIV-1, CEM cell cultures
[29] = VZV strain OKA, read-out: EC50 VZV (OKA)

| Compound | EC50 [1] [µM] | EC50 [2] [µM] | EC50 [3] [µM] | IC50 [4] [µM] | CC50 ([5]; HEL cells, anti-VZV table) [µM] | IC50 [6] [µM] | IC50 [7] [µM] | EC50 [8] [µM] | EC50 [9] [µM] | EC50 [10] [µM] | MTC (HEL) ([11]; anti-VZV table) | EC50 [12, 26] [µM] | EC50 [12, 27] [µM] | EC50 [12, 28] [µM] | EC50 [13, 29] [µM] | EC50 [14] [µM] | EC50 [17] [µM] | CC50 ([5]; HEL cell proliferation) [µM] | MTC (HEL) [11] | EC50 [19] [µM] | further results |
| --- | --- | --- | --- | --- | --- | --- | --- | --- | --- | --- | --- | --- | --- | --- | --- | --- | --- | --- | --- | --- | --- |
| CCCCc1ccc(CNCC(=O)N2CCN(C(=O)C3NC(=O)C4NC(=O)C(NC(=O)C5NC(=O)C6NC(=O)C(Cc7ccc(c(Cl)c7)Oc7cc5cc(c7O)Oc5ccc(cc5Cl)C4O)NC(=O)C(N)c4ccc(O)c(c4)Oc4cc(O)cc6c4)c4ccc(O)c(c4)-c4c(O)cc(O)cc43)CC2)cc1 (stereo not drawn) [Compound 46] | 8 | 6.5 ± 4.3 | 35 ± 7.1 | > 100 | > 50 | > 100 | > 100 | 9 ± 1.4 | 7 ± 4.2 | 17 ± 4.2 | 20 to 80 µM | 4 | 4 | 4 | 0.81 | 10 |  |  |  |  | EC50 [15]: 35 ± 7.1 µM |
| Cc1ccnc2c1NC(=O)c1cccnc1N2C1CC1 [nevirapine, reference compound] |  |  |  |  |  |  |  |  |  |  |  |  |  |  |  |  |  |  |  |  | selection of resistant virus strains [16]: easily resulted in the emergence |
| CCCCc1ccc(CNCc2c(O)cc3c(c2O)-c2cc(ccc2O)C2NC(=O)C4NC(=O)C5NC(=O)C(Cc6ccc(c(Cl)c6)Oc6cc4cc(c6O)Oc4ccc(cc4Cl)C(O)C(NC2=O)C(=O)NC3C(=O)O)NC(=O)C(NC(=O)OC(C)(C)C)c2ccc(O)c(c2)Oc2cc(O)cc5c2)cc1 (stereo not drawn) [Compound 146] |  |  |  |  | > 50 |  |  |  |  |  | ≧5-50 μM |  |  |  | 2.5 |  | 9.6 | > 50 | ≧5-50 μM | 9.6 | activity against HSV-2 [17]: activity; CC50 ([5]; HEL cells, anti-CMV table): > 50 µM; MTC (HEL) ([11]; anti-CMV table): ≧5-50 μM; EC50 [18]: > 20 µM; activity against HSV-1 [19]: activity |
| CNC(=O)C1NC(=O)C2NC(=O)C(NC(=O)C3NC(=O)C4NC(=O)C(Cc5ccc(c(Cl)c5)Oc5cc3cc(c5O)Oc3ccc(cc3Cl)C2O)NC(=O)C(N)c2ccc(O)c(c2)Oc2cc(O)cc4c2)c2ccc(O)c(c2)-c2c1cc(O)c(CNC1C3CC4CC(C3)CC1C4)c2O (stereo not drawn) [Compound 51] | 9.5 ± 2.1 | 25 ± 5 | 40 | > 250 |  | > 250 | 212 ± 54 | 25 ± 7.1 | 17 ± 3.5 | 12 |  | 5 ± 1.4 | 5 ± 1.4 | 5 ± 1.4 |  | 9 ± 4.2 |  |  |  |  | EC50 [20]: 11 ± 6.4 µM; CC50 [21]: > 100 µM; EC50 [22]: 39 µM; CC50 [23]: ≥ 100 µM; EC50 [24]: 15 µM; EC50 [25]: 24 ± 6.3 µM; EC50 [15]: 13 ± 6.6 µM |
| CCCCCCCCCC(=O)N1CCN(C(=O)C2NC(=O)C3NC(=O)C(NC(=O)C4NC(=O)C5NC(=O)C(Cc6ccc(c(Cl)c6)Oc6cc4cc(c6O)Oc4ccc(cc4Cl)C3O)NC(=O)C(N)c3ccc(O)c(c3)Oc3cc(O)cc5c3)c3ccc(O)c(c3)-c3c(O)cc(O)cc32)CC1 (stereo not drawn) [Compound 40] |  |  |  | 44 ± 0.42 | > 50 | 32.3 | 38.7 ± 3.4 |  | 4.5 ± 2.1 |  | ≧5-20 μM |  |  | 1.5 ± 0.7 | 0.29 |  | 9.6 | > 50 | ≧5-20 μM | 9.6 | EC50 ([13]; VZV strain YS, read-out: EC50 VZV (YS)): 0.21 µM |
| CCCCOc1ccc(CNCCOc2c3cc4cc2Oc2ccc(cc2Cl)C(O)C2NC(=O)C(NC(=O)C4NC(=O)C4NC(=O)C(Cc5ccc(c(Cl)c5)O3)NC(=O)C(NCc3ccc(OCCCC)cc3)c3ccc(O)c(c3)Oc3cc(O)cc4c3)c3ccc(O)c(c3)-c3c(O)cc(O)cc3C(C(=O)O)NC2=O)cc1 (stereo not drawn) [Compound 132] |  |  |  |  | 40 |  |  |  |  |  | ≧5-20 μM |  |  |  | 0.97 |  | 9.6 | 40 | ≧5-20 μM | 9.6 | activity against HSV-2 [17]: activity; activity against HSV-1 [19]: activity |
